Assay results: the supplement of paper PMC10883282
± gives the standard deviation of the averaged measurements.

System: SYO-1
Assay: relative viability vs DMSO control (72 h) (fraction); higher = more viable cells
How it was run: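 ATPLite readings, expressed as percent growth and averaged over up to triplicate wells, provided relative viability. Before reading, sarcoma cell lines seeded in 384-well plates to reach 80–90% confluence received 2.5 µl of serially diluted compound after 24 h, from source plates of 10 mM to 0.0002 mM. Plates were held 72 h at 37 °C, 5% CO2, with 0.1% DMSO as vehicle and a 5 µM positive control. The data were rescaled to 1 for full and 0 for none.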

SMILES | relative viability (0.00017 µM) | relative viability (0.00051 µM) | relative viability (0.00152 µM) | relative viability (0.00457 µM) | relative viability (0.01372 µM) | relative viability (0.04115 µM) | relative viability (0.1235 µM) | relative viability (0.3704 µM) | relative viability (1.111 µM) | relative viability (3.333 µM) | relative viability (10 µM)
C=CC(=O)Nc1cccc(Oc2nc(Nc3ccc(N4CCN(C)CC4)cc3)nc3ccsc23)c1 [Olmutinib] | 0.957 ± 0.02 | 0.985 ± 0.043 | 0.955 ± 0.018 | 0.952 ± 0.01 | 0.953 ± 0.021 | 0.9712 ± 0.0081 | 0.972 ± 0.037 | 0.933 ± 0.017 | 0.908 ± 0.045 | 0.698 ± 0.044 | -0.00933 ± 0.0049
COc1cc2c(Oc3ccc4[nH]c(C)cc4c3F)ncnc2cc1OCCCN1CCCC1 [Cediranib] | 0.965 ± 0.02 | 0.962 ± 0.039 | 0.967 ± 0.04 | 0.946 ± 0.043 | 0.91 ± 0.074 | 0.723 ± 0.036 | 0.5301 ± 0.0011 | 0.471 ± 0.019 | 0.453 ± 0.019 | 0.483 ± 0.012 | 0.482 ± 0.027
Cc1cnc(Nc2ccc(OCCN3CCCC3)cc2)nc1Nc1cccc(S(=O)(=O)NC(C)(C)C)c1 [Fedratinib] | 0.982 ± 0.04 | 0.943 ± 0.078 | 0.941 ± 0.09 | 0.933 ± 0.037 | 0.898 ± 0.053 | 0.843 ± 0.027 | 0.748 ± 0.066 | 0.496 ± 0.052 | 0.132 ± 0.0092 | -0.0159 ± 0.0034 | -0.0172 ± 0.0037
CCCS(=O)(=O)Nc1ccc(F)c(C(=O)c2c[nH]c3ncc(-c4ccc(Cl)cc4)cc23)c1F [Vemurafenib] | 0.954 ± 0.056 | 0.955 ± 0.048 | 0.963 ± 0.04 | 0.966 ± 0.061 | 0.975 ± 0.051 | 0.967 ± 0.043 | 0.974 ± 0.024 | 1 ± 0.027 | 0.986 ± 0.042 | 0.95 ± 0.076 | 0.608 ± 0.072
Cn1cnc2c(F)c(Nc3ccc(Br)cc3F)c(C(=O)NOCCO)cc21 [Binimetinib] | 1.04 ± 0.027 | 1.05 ± 0.02 | 1.01 ± 0.064 | 1.01 ± 0.038 | 0.983 ± 0.024 | 0.96 ± 0.042 | 0.936 ± 0.038 | 0.933 ± 0.019 | 0.93 ± 0.069 | 0.889 ± 0.042 | 0.86 ± 0.059
COc1c(OCCCN2CCOCC2)ccc2c1N=C(NC(=O)c1cnc(N)nc1)N1CCN=C21 [Copanlisib] | 1 ± 0.011 | 0.945 ± 0.023 | 0.911 ± 0.051 | 0.79 ± 0.06 | 0.754 ± 0.041 | 0.693 ± 0.02 | 0.651 ± 0.052 | 0.52 ± 0.02 | 0.374 ± 0.012 | 0.171 ± 0.0084 | 0.0829 ± 0.006
COc1cc2nccc(Oc3ccc(NC(=O)Nc4cc(C)on4)c(Cl)c3)c2cc1OC [Tivozanib] | 0.97 ± 0.049 | 0.952 ± 0.04 | 0.935 ± 0.051 | 0.941 ± 0.023 | 0.887 ± 0.051 | 0.796 ± 0.053 | 0.765 ± 0.02 | 0.706 ± 0.03 | 0.618 ± 0.065 | 0.523 ± 0.025 | 0.393 ± 0.027
CC[C@H](Nc1ncnc2[nH]cnc12)c1nc2cccc(F)c2c(=O)n1-c1ccccc1 [Idelalisib] | 1.01 ± 0.062 | 0.979 ± 0.029 | 1 ± 0.054 | 0.968 ± 0.068 | 0.972 ± 0.069 | 0.942 ± 0.028 | 0.941 ± 0.032 | 0.931 ± 0.068 | 0.911 ± 0.045 | 0.866 ± 0.067 | 0.799 ± 0.079
Cc1cc(C)c(/C=C2\C(=O)Nc3ccccc32)[nH]1 [Semaxanib] | 0.922 ± 0.014 | 0.915 ± 0.01 | 0.917 ± 0.014 | 0.908 ± 0.025 | 0.87 ± 0.035 | 0.824 ± 0.056 | 0.774 ± 0.047 | 0.721 ± 0.03 | 0.649 ± 0.046 | 0.632 ± 0.041 | 0.579 ± 0.0071
Cc1ccc(F)c(NC(=O)Nc2ccc(-c3cccc4[nH]nc(N)c34)cc2)c1 [Linifanib] | 0.98 ± 0.036 | 0.968 ± 0.087 | 0.957 ± 0.066 | 0.941 ± 0.035 | 0.906 ± 0.049 | 0.845 ± 0.085 | 0.76 ± 0.13 | 0.751 ± 0.093 | 0.769 ± 0.016 | 0.753 ± 0.055 | 0.711 ± 0.031
COCc1c(-c2cc3cc(C)cc(OC)c3s2)c2c(N)ncnn2c1CN1CCNC(=O)C1 [Rogaratinib] | 1.01 ± 0.048 | 0.974 ± 0.054 | 0.952 ± 0.059 | 0.924 ± 0.067 | 0.84 ± 0.059 | 0.765 ± 0.082 | 0.634 ± 0.05 | 0.613 ± 0.071 | 0.6 ± 0.057 | 0.568 ± 0.056 | 0.464 ± 0.06
N#CC[C@H](C1CCCC1)n1cc(-c2ncnc3[nH]ccc23)cn1 [Ruxolitinib] | 0.969 ± 0.039 | 0.975 ± 0.034 | 0.958 ± 0.035 | 0.945 ± 0.029 | 0.964 ± 0.026 | 0.969 ± 0.059 | 0.931 ± 0.043 | 0.941 ± 0.095 | 0.945 ± 0.048 | 0.892 ± 0.037 | 0.641 ± 0.014
CCN1CCN(Cc2ccc(Nc3ncc(F)c(-c4cc(F)c5nc(C)n(C(C)C)c5c4)n3)nc2)CC1 [Abemaciclib] | 0.953 ± 0.047 | 0.936 ± 0.043 | 0.925 ± 0.029 | 0.905 ± 0.051 | 0.849 ± 0.059 | 0.775 ± 0.064 | 0.657 ± 0.051 | 0.519 ± 0.039 | 0.461 ± 0.015 | 0.353 ± 0.059 | 0.0228 ± 0.055
CNC(=O)c1cc(Oc2ccc(NC(=O)Nc3ccc(Cl)c(C(F)(F)F)c3)c(F)c2)ccn1 [Regorafenib] | 1.02 ± 0.039 | 1.022 ± 0.0037 | 1.04 ± 0.05 | 1.01 ± 0.035 | 1.03 ± 0.02 | 0.999 ± 0.05 | 0.954 ± 0.065 | 0.755 ± 0.038 | 0.572 ± 0.022 | 0.476 ± 0.016 | 0.217 ± 0.016
